Measurements reported in patent US5380646A, “Thrombus detection using radiolabelled disintegrins” (Temple University of the Commonwealth System of Higher …, priority 1992, dated 1995).
Ends that are not written are not given here.

Columns and labels:
pulmonary emboli [1] = assay: Comparison of short Arg-Gly-Asp peptides to disintegrins in dog, pulmonary emboli (Example 7); format: in vivo; settings: PE; 4 hrs
Procedure: In this example of thrombi and emboli in a dog, the radioactivity target:background ratios were determined qualitatively by imaging and quantitatively by tissue sampling. Higher ratios are due to the increased target specificity of the radiolabel carrier. Significant measurements presented in this study are the relative ratio of counts from the target tissue (thrombus and pulmonary emboli) to background entities (muscle, vessels blood etc.). […] Thrombus uptake data, such as the percent injected radiolabel dose per gram of thrombus (% id/g thrombus), thrombus-to-blood (=100×% id/g thrombus.div.%id/g blood) and thrombus-to-muscle ratios (=100×%id/g thrombus.div.%id/g muscle) were calculated from the tissue sample count data discussed below.
To create a model of pulmonary embolus, an incision was made in the corresponding location on the left leg of the dog. […] The catheter and guide wire were withdrawn. The incision was closed with 2-0 silk.
Twenty-four hours after placement of the coils, anesthesia was induced as before. The urinary bladder was catheterized to collect urine. A large field of view gamma camera (General Electric, Milwaukee, Wis.) was positioned over the dog for an anterior view of the chest. The camera was fitted with a low-energy all-purpose collimator and was set to acquire the 159 keV photopeak of ^123 I with a 20% window. A Macintosh IIx computer was interfaced to the camera using a NucLear Mac A/D board and software (Scientific Imaging, Denver, Colo.). […] The ^125 -fibrinogen served as a control, since it has been studied previously in this dog model.
[…] A blood sample was drawn and 0.3 cc was transferred into each of two pre-weighed tubes. The animal was euthanized with intracardiac injection of KCl saturated solution. The vein segment containing the thrombus was carefully removed and dissected to separate the thrombus, coil, Dacron fibers and vessel wall. Each of these samples was placed on tared paper and weighed (wet weight). Similar size samples of control vessel (femoral vein from the control side) and skeletal muscle (from the thigh) were also collected and weighed. The "abnormal vessel" was the sample of vein from which the thrombus was dissected. The "control vessel" was the identical control vessel from the opposite leg. The control vessel Was not injured and therefore should not have significant uptake of radiotracer. Each sample was then placed in a counting tube and counted along with a saved aliquot of the injected dose as a standard, in a well counter. After counting, samples were held for decay of ^123 I and recounted in a lower energy window to collect the counts from ^125 I.
The imaging ability of the small peptides was compared to that of the ^123 I-labelled disintegrins in the Example 6 dog model. […]

femoral clot = assay: Comparison of short Arg-Gly-Asp peptides to disintegrins in dog, femoral clot (Example 7); format: in vivo; settings: T:B at least 4:1 in extremities, 9:1 in chest
Procedure: In this example of thrombi and emboli in a dog, the radioactivity target:background ratios were determined qualitatively by imaging and quantitatively by tissue sampling. […] Significant measurements presented in this study are the relative ratio of counts from the target tissue (thrombus and pulmonary emboli) to background entities (muscle, vessels blood etc.). […] Thrombus uptake data, such as the percent injected radiolabel dose per gram of thrombus (% id/g thrombus), thrombus-to-blood (=100×% id/g thrombus.div.%id/g blood) and thrombus-to-muscle ratios (=100×%id/g thrombus.div.%id/g muscle) were calculated from the tissue sample count data discussed below.
A female mongrel dog weighing 40 lbs was fasted overnight. The dog was sedated with an intramuscular injection of a mixture of ketamine hydrochloride and acepromazine maleate. General anesthesia was induced with intravenous pentobarbital (20 mg/kg). After shaving and washing the dog's skin, a 3-cm incision was made in the right groin area. Using blunt dissection, a segment of the femoral vein was located and freed from surrounding tissue for a length of 1 inch. […]
At 2 hours and 45 min. post injection, deep anesthesia was induced by intravenous administration of 30 mg/kg pentobarbital. […] Each sample was then placed in a counting tube and counted along with a saved aliquot of the injected dose as a standard, in a well counter. […]

thrombi = settings: literature, in words; cited from earlier work
pulmonary emboli [2] = settings: literature, in words; cited from earlier work

With “^123 I-eristostatin: eristostatin, disintegrin from Eristocophis macmahoni, radioiodinated with ^123 I (QEEPCATGPCCRRCKFKRAGKVCRVARGDWNDDYCTGKSCDCPRNPWN; cysteine pairing not given here; also: radioiodinated with 123I, place not given here)” the “AV:CV abnormal (injured) vessel:control vessel label ratio” value (pulmonary emboli [1]) was 1.2, the “Percent Injected Dose Per Gram of Thrombus” value (pulmonary emboli [1]) was 0.1205 % id/g and the “T:B thrombus:blood ratio” value (pulmonary emboli [1]) was 8.6. The “T:M thrombus:muscle ratio” value (pulmonary emboli [1]) was 40.6 and the “target:background ratios versus medically acceptable range for imaging” value (femoral clot) was “medically significant background ratios for imaging of thrombi”.

In the case of urokinase, the “ability to image or detect thrombi” value (thrombi) is listed as “only with marginal success”.

For streptokinase, the “ability to image or detect thrombi” value (thrombi) is given as “only with marginal success”.

For Heparin [reference compound], the “ability to image or detect thrombi” value (thrombi) is given as “not been found successful as an agent for imaging thrombi”.

For Fibronectin, the “ability to image pulmonary emboli” value (pulmonary emboli [2]) is given as “not been useful for imaging pulmonary emboli”.
